Reference: patent US20210171564A1, “COMPOSITIONS AND METHODS FOR THE TREATMENT OF CANCER” (Cellix Bio Private Limited, priority 2018, published 2021)
Values joined by “and” are separate entries in the source; they are usually repeats but may differ in a detail not shown here. Equal values may be shown once. “Also recorded” adds a separate entry of the source.

Legend:
[1] = test system: HCT116 human colon cancer xenograft; experiment: Anti-tumor efficacy in HCT-116 xenograft model in Foxn1 nude mice (tumor growth inhibition); format: in vivo, Foxn1 athymic nude female mice; conditions: for % Tumor Growth Inhibition (% TGI): oral; for tumor growth inhibition: day not given
Text: Evaluation of Anti-Tumor Efficacy of Test Compound (CLX-Syn-G155A-C03) in HCT-116 Xenograft Model in Fox N1 Nude Mice:
(§1) The purpose of this study was to evaluate the anti-tumor activity of test compound administered by oral gavage, for a period of 17 days in HCT116 human colon cancer xenograft bearing Foxn1 athymic nude mice. The anti-tumor activity of test compound was compared with capecitabine. Foxn1 athymic nude female mice (7-8 weeks) were implanted with human colon cancer cell line, HCT116 (5 million cells/site) subcutaneously in the dorsal right flank. The animals were randomized (N=10) into different treatment groups as vehicle control, test compound (300 mg/kg, QD, 150 mg/kg BID, 1000 mg/kg QD and 500 mg/kg BID or capecitabine (1000 mg/kg QD and 500 mg/kg BID) based on the tumor volume, when the subcutaneous tumor reached a volume in the range of 70-137 mm^3.
(§2) The animals in the control group were dosed with the formulation used for test compound, which consisted of 0.5% w/v HPMC+0.5% w/v Tween-80 in purified water (q.s) at the dose volume of […]. The Capecitabine formulation was prepared using 0.5% Hydroxypropyl methylcellulose (HPMC E 15) in 40 mM citrate buffer, pH 6.0 at the dose volume of 10 mL/kg. Treatment to animals was performed initially for ten days dosing followed by 2 off doses days and then continued for another 7 days. […] Tumor growth inhibition (TGI) was calculated based on the tumor volume on a given day as compared to that on day 1. On day 19, blood samples were collected from test compound 1000 mg/kg QD and Capecitabine 1000 mg/kg QD groups at 0 hr; prior to dosing (first dose administration in morning) and at 0.5, 1, 2, 4, 8 and 24 hours post dosing to evaluate the pharmacokinetic parameters of various metabolites (5′-DFCR, 5′-DFUR, 5-Fluorouracil and valproic acid).

[2] = Toxicity profile in the xenograft study (mortality, clinical signs, body weight); format: in vivo; conditions: for Diarrhea / Hunch back / Morality: animals affected/10
Text: as §1, §2

**Q.** For CCCCCOC(=O)Nc1nc(=O)n([C@@H]2O[C@H](C)[C@@H](O)[C@H]2O)cc1F [Capecitabine, reference compound], which “% Tumor Growth Inhibition (% TGI)” value ([1]; 500 mg/kg BID, day 4) is on record?
**A.** Its value is 87.0%.

**Q.** What about the “% Tumor Growth Inhibition (% TGI)” value ([1]; 500 mg/kg BID, day 6) of the same compound?
**A.** The value was 82.9%.

**Q.** What about the “% Tumor Growth Inhibition (% TGI)” value ([1]; 500 mg/kg BID, day 8) of the same compound?
**A.** Its value is 85.8%.

**Q.** And the “% Tumor Growth Inhibition (% TGI)” value ([1]; 500 mg/kg BID, day 11)?
**A.** Its value is 89.3%.

**Q.** What about the “% Tumor Growth Inhibition (% TGI)” value ([1]; 500 mg/kg BID, day 13) of the same compound?
**A.** Its value is 93.6%.

**Q.** What about the “% Tumor Growth Inhibition (% TGI)” value ([1]; 500 mg/kg BID, day 15) of the same compound?
**A.** Its value is 94.1%.

**Q.** What about the tumor growth inhibition ([1]; 500 mg/kg BID) of the same compound?
**A.** Its tumor growth inhibition is 87.6%.

**Q.** And the tumor growth inhibition ([1]; 1000 mg/kg QD (once daily))?
**A.** Its tumor growth inhibition is 94.1%.

**Q.** What about the “% Tumor Growth Inhibition (% TGI)” value ([1]; 1000 mg/kg QD, day 4) of the same compound?
**A.** The value was 76.8%.

**Q.** And the “% Tumor Growth Inhibition (% TGI)” value ([1]; 1000 mg/kg QD, day 6)?
**A.** Its value is 71.5%.

**Q.** And the “% Tumor Growth Inhibition (% TGI)” value ([1]; 1000 mg/kg QD, day 8)?
**A.** Its value is 71.7%.

**Q.** And the “% Tumor Growth Inhibition (% TGI)” value ([1]; 1000 mg/kg QD, day 11)?
**A.** Its value is 77.2%.

**Q.** What about the “% Tumor Growth Inhibition (% TGI)” value ([1]; 1000 mg/kg QD, day 13) of the same compound?
**A.** Its value is 86.9%.

**Q.** What about the “% Tumor Growth Inhibition (% TGI)” value ([1]; 1000 mg/kg QD, day 15) of the same compound?
**A.** The value was 87.6%.

**Q.** What about the “Mean % body weight reduction” value ([2]; 500 mg/kg BID) of the same compound?
**A.** The value was −16.8%.

**Q.** And the Diarrhea ([2]; 500 mg/kg BID)?
**A.** Its Diarrhea is 1/10.

**Q.** And the Hunch back ([2]; 500 mg/kg BID)?
**A.** Its Hunch back is 3/10.

**Q.** And the Morality ([2]; 500 mg/kg BID)?
**A.** The Morality was 2/10.

**Q.** And the “Mean % body weight reduction” value ([2]; 1000 mg/kg QD)?
**A.** Its value is −24.5%.

**Q.** And the Diarrhea ([2]; 1000 mg/kg QD)?
**A.** The Diarrhea was 0/10.

**Q.** And the Hunch back ([2]; 1000 mg/kg QD)?
**A.** Its Hunch back is 3/10.

**Q.** What about the Morality ([2]; 1000 mg/kg QD) of the same compound?
**A.** The Morality was “no mortality and 0/10”.

**Q.** For CCCC(CCC)C(=O)Nc1nc(=O)n([C@@H]2O[C@H](C)[C@@H](OC(C)=O)[C@H]2OC(C)=O)cc1F [Test Compound, (2R,3R,4R,5R)-2-(5-fluoro-2-oxo-4-(2-propylpentanamido)pyrimidin-1(2H)-yl)-5-methyltetrahydrofuran-3,4-diyl diacetate], which “% Tumor Growth Inhibition (% TGI)” value ([1]; 150 mg/kg BID, day 4) is on record?
**A.** Its value is 37.4%.

**Q.** What about the “% Tumor Growth Inhibition (% TGI)” value ([1]; 150 mg/kg BID, day 6) of the same compound?
**A.** The value was 40.2%.

**Q.** What about the “% Tumor Growth Inhibition (% TGI)” value ([1]; 150 mg/kg BID, day 8) of the same compound?
**A.** The value was 39.2%.

**Q.** And the “% Tumor Growth Inhibition (% TGI)” value ([1]; 150 mg/kg BID, day 11)?
**A.** The value was 47.6%.

**Q.** What about the “% Tumor Growth Inhibition (% TGI)” value ([1]; 150 mg/kg BID, day 13) of the same compound?
**A.** Its value is 55.7%.

**Q.** What about the “% Tumor Growth Inhibition (% TGI)” value ([1]; 150 mg/kg BID, day 15) of the same compound?
**A.** The value was 54.7%.

**Q.** What about the “% Tumor Growth Inhibition (% TGI)” value ([1]; 300 mg/kg QD, day 4) of the same compound?
**A.** The value was 58.8%.

**Q.** And the “% Tumor Growth Inhibition (% TGI)” value ([1]; 300 mg/kg QD, day 6)?
**A.** Its value is 51.0%.

**Q.** And the “% Tumor Growth Inhibition (% TGI)” value ([1]; 300 mg/kg QD, day 8)?
**A.** The value was 55.5%.

**Q.** And the “% Tumor Growth Inhibition (% TGI)” value ([1]; 300 mg/kg QD, day 11)?
**A.** Its value is 60.7%.

**Q.** And the “% Tumor Growth Inhibition (% TGI)” value ([1]; 300 mg/kg QD, day 13)?
**A.** The value was 67.2%.

**Q.** And the “% Tumor Growth Inhibition (% TGI)” value ([1]; 300 mg/kg QD, day 15)?
**A.** Its value is 70.4%.

**Q.** What about the “antitumor activity of once a day schedule versus twice a day schedule (150 mg/kg BID)” value ([1]; 300 mg/kg/day once daily) of the same compound?
**A.** Its value is “better antitumor activity”.

**Q.** And the “% Tumor Growth Inhibition (% TGI)” value ([1]; 500 mg/kg BID, day 4)?
**A.** The value was 76.3%.

**Q.** And the “% Tumor Growth Inhibition (% TGI)” value ([1]; 500 mg/kg BID, day 6)?
**A.** Its value is 74.8%.

**Q.** What about the “% Tumor Growth Inhibition (% TGI)” value ([1]; 500 mg/kg BID, day 8) of the same compound?
**A.** The value was 81.3%.

**Q.** What about the “% Tumor Growth Inhibition (% TGI)” value ([1]; 500 mg/kg BID, day 11) of the same compound?
**A.** Its value is 87.7%.

**Q.** And the “% Tumor Growth Inhibition (% TGI)” value ([1]; 500 mg/kg BID, day 13)?
**A.** Its value is 95.4%.

**Q.** What about the “% Tumor Growth Inhibition (% TGI)” value ([1]; 500 mg/kg BID, day 15) of the same compound?
**A.** The value was 96.6%.

**Q.** And the tumor growth inhibition ([1]; 1000 mg/kg QD (once daily))?
**A.** Its tumor growth inhibition is greater than 90%.

**Q.** What about the “% Tumor Growth Inhibition (% TGI)” value ([1]; 1000 mg/kg QD, day 4) of the same compound?
**A.** Its value is 66.0%.

**Q.** What about the “% Tumor Growth Inhibition (% TGI)” value ([1]; 1000 mg/kg QD, day 6) of the same compound?
**A.** The value was 70.5%.

**Q.** What about the “% Tumor Growth Inhibition (% TGI)” value ([1]; 1000 mg/kg QD, day 8) of the same compound?
**A.** The value was 73.3%.

**Q.** And the “% Tumor Growth Inhibition (% TGI)” value ([1]; 1000 mg/kg QD, day 11)?
**A.** The value was 78.4%.

**Q.** And the “% Tumor Growth Inhibition (% TGI)” value ([1]; 1000 mg/kg QD, day 13)?
**A.** The value was 88.1%.

**Q.** And the “% Tumor Growth Inhibition (% TGI)” value ([1]; 1000 mg/kg QD, day 15)?
**A.** Its value is 90.9%.

**Q.** What about the “antitumor activity against HCT-116 human colon cancer xenografts” value ([1]; oral gavage, QD and BID dosage regimen) of the same compound?
**A.** Its value is “statistically significant, dose dependent tumor growth inhibition; also recorded: statistically significant dose dependent antitumor activity”.
